According to patent publication US12084680B2, “Methods for efficient derivation of human motor neurons from diverse spinal regions” (Wisconsin Alumni Research Foundation, priority 2016, dated 2024):

Tested on: H9 hESCs
Assay: NKX6.1 induction in neurally differentiating H9 hESCs after 24 h treatment (flow cytometry, RT-PCR, day 3)
Assay type: cell-based, human
Description: NKX6.1 is the earliest expressed marker in the motor neuron development cascade in vivo, so we examined its expression in response to Wnt/β-catenin, RA, and SHH signaling during hPSC motor neuron differentiation. H9 hESCs were differentiated in E6 medium for 2 days to initiate neural fate acquisition34 and then treated with combinations of RA, purmorphamine (PM, a small molecule agonist of SHH signaling), and CHIR for 24 h (FIG. 4A). […] Using the H9 ishcat2 line, we observed that CHIR-mediated induction of NKX6.1 was β-catenin-dependent, as the optimal 3 days of shRNA-mediated CTNNB1 knockdown upstream of CHIR treatment was required to maximally reduce NKX6.1 induction to 44±1% (FIG. 4E). The correlation between NKX6.1 knockdown and days of doxycycline treatment was presumably due to the time delay for shRNA synthesis and subsequent gene knockdown in Tet-on systems. […] Exogenously added WNT3A (200 ng/mL) could also induce NKX6.1 expression (60±14%) (FIG. 4G), providing further evidence for the involvement of Wnt/β-catenin signaling in this process. In contrast, simultaneous treatment with CHIR and BMP4 (200 ng/mL), a dorsal patterning factor, reduced the expression of NKX6.1 from 91±1% to 68±2% (FIG. 4H).
hESCs were dissociated with accutase (Thermo Fisher Scientific) and reseeded at 1×10^5 cells/cm2 in E8 medium containing 10 μM ROCK inhibitor (Y27632; R&D Systems) on 6-well polystyrene tissue culture plates coated with 100 μg/mL poly-L-ornithine (PLO; Sigma) and 8 μg/well VTN-NC. The timelines and relevant growth factors/small molecules for all differentiation procedures are described in detail in the Results section and its accompanying figures. Cells were differentiated for various amounts of time in E6 medium containing the same insulin concentration as E8 medium as described above with varying combinations of soluble factors (product information and concentration ranges are found in Table 2). For neuromesodermal induction and HOX propagation, cells were sequentially cultured with FGF8b, CHIR99021 (CHIR), GDF11, and dorsomorphin (DM) as previously described. Briefly, to initiate the neuromesodermal state, cells were changed to E6 medium followed by addition of FGF8b (200 ng/ml) 24 h later. To generate cervical neuromesodermal progenitors, cells were washed with PBS, treated with accutase, and re-seeded in E6 medium containing 200 ng/ml FGF8b, 3 μM CHIR, and 10 μM Y27632 on VTN-NC-coated plates at a density of 1.5×10^5 cells/cm^2 for 48 h. To generate thoracic neuromesodermal progenitors, cells were passaged again after 72 h of CHIR treatment and re-seeded at different densities as described in the text.
Thoracic identity was reached after an additional 24 h. Then, to reach the lumbosacral level, cells were given 30 ng/ml GDF11 and 1 μM DM for an additional 48 h. For neuroectoderm induction and generation of OLIG2^+ progenitors, FGF8b was removed at the designated time points and the concentration of CHIR was increased for 6 h as described in the text, followed by a transition to media containing RA, PM, and SHH for a period of 48 h. For differentiation of the OLIG2^+ progenitors to motor neurons, cells were subcultured by en bloc passage using a cell scraper, reseeded at a 1:200 ratio in Matrigel-coated 8-well chamber slides, and differentiated for 14 days in E6 medium containing 1 μM RA, 100 nM PM, and 100 ng/mL SHH, with media exchange every 3 days (10 μM Y27632 was included during the en bloc passaging step and removed after the first media exchange). For differentiation of lumbar cultures, 1 μM DM was included in all steps. For the myoblast co-culture experiments, OLIG2^+ cultures were en bloc passaged, frozen in E6 medium containing 10% DMSO, shipped to a different location, and thawed 1:10 in 6-well plates under the same conditions as described in FIG. 5. To facilitate neuronal maturation prior to myoblast co-culture, 5 μM DAPT (Tocris) was added from days 8-14 post-thaw. […]

## Cc1c[nH]c(-c2cnc(NCCNc3ccc(C#N)cn3)nc2-c2ccc(Cl)cc2Cl)n1 [CHIR, CHIR99021]
CHIR 4 μM without BMP4, day 3
  NKX6.1 expression (flow cytometry): 91±1%
CHIR alone 6 μM, 24 h, analysed day 3
  NKX6.1 expression (flow cytometry): 98±1%
CHIR alone 6 μM, 24 h, day 3
  NKX6.1 and OLIG2 gene expression (RT-PCR): sufficient to induce NKX6.1 but not OLIG2 gene expression
